PubChem BioAssay (NCI)
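96-well plates; 48 h exposure; 5 concentrations. Endpoints by linear interpolation between flanking doses. Not reached: highest tested concentration assigned. GI50: concentration for 50% inhibition of growth. TGI marks complete inhibition of growth.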

Assays:
Experiment in all cases: NCI-60 cell line screen, 48 h
SF-268 CNS = test system: SF-268 CNS
HT29 colon = test system: HT29 colon
NCI-H522 lung = test system: NCI-H522 lung
NCI-H23 lung = test system: NCI-H23 lung
NCI-H226 lung = test system: NCI-H226 lung
OVCAR-5 ovarian = test system: OVCAR-5 ovarian
SF-295 CNS = test system: SF-295 CNS
SK-MEL-5 melanoma = test system: SK-MEL-5 melanoma
CAKI-1 renal = test system: CAKI-1 renal
MCF7 breast = test system: MCF7 breast
A549 NSCLC = test system: A549 NSCLC
SF-539 CNS = test system: SF-539 CNS
OVCAR-8 ovarian = test system: OVCAR-8 ovarian
HCT-116 colon = test system: HCT-116 colon
HS 578T breast = test system: HS 578T breast
MALME-3M melanoma = test system: MALME-3M melanoma
ACHN renal = test system: ACHN renal
UACC-62 melanoma = test system: UACC-62 melanoma
HCT-15 colon = test system: HCT-15 colon
NCI/ADR-RES ovarian = test system: NCI/ADR-RES ovarian
RXF 393 renal = test system: RXF 393 renal
786-0 renal = test system: 786-0 renal
U251 CNS = test system: U251 CNS
UO-31 renal = test system: UO-31 renal
OVCAR-4 ovarian = test system: OVCAR-4 ovarian
COLO 205 colon = test system: COLO 205 colon
OVCAR-3 ovarian = test system: OVCAR-3 ovarian
HOP-92 NSCLC = test system: HOP-92 NSCLC
K-562 leukemia = test system: K-562 leukemia
RPMI-8226 leukemia = test system: RPMI-8226 leukemia
DU-145 prostate = test system: DU-145 prostate
HCC-2998 colon = test system: HCC-2998 colon
NCI-H460 lung = test system: NCI-H460 lung
SNB-75 CNS = test system: SNB-75 CNS
SNB-19 CNS = test system: SNB-19 CNS
TK-10 renal = test system: TK-10 renal
SN12C renal = test system: SN12C renal
EKVX NSCLC = test system: EKVX NSCLC
SW-620 colon = test system: SW-620 colon
M14 melanoma = test system: M14 melanoma
T-47D breast = test system: T-47D breast
UACC-257 melanoma = test system: UACC-257 melanoma
SK-MEL-2 melanoma = test system: SK-MEL-2 melanoma
MDA-MB-231 breast = test system: MDA-MB-231 breast
HOP-62 NSCLC = test system: HOP-62 NSCLC
PC-3 prostate = test system: PC-3 prostate
BT-549 breast = test system: BT-549 breast
KM12 colon = test system: KM12 colon
MDA-MB-435 = test system: MDA-MB-435
LOX IMVI melanoma = test system: LOX IMVI melanoma
SK-OV-3 ovarian = test system: SK-OV-3 ovarian
SK-MEL-28 melanoma = test system: SK-MEL-28 melanoma
IGROV1 ovarian = test system: IGROV1 ovarian
A498 renal = test system: A498 renal

SMILES: Fc1cc(-c2csc3n[nH]c(=S)n23)c(Cl)cc1Cl
- GI50 (SF-268 CNS): 35.5 µM
- TGI (SF-268 CNS): > 100 µM
- GI50 (HT29 colon): 65.8 µM
- TGI (HT29 colon): > 100 µM
- GI50 (NCI-H522 lung): 39.2 µM
- TGI (NCI-H522 lung): > 100 µM
- GI50 (NCI-H23 lung): 23.5 µM
- TGI (NCI-H23 lung): 78.8 µM
- GI50 (NCI-H226 lung): 19.6 µM
- TGI (NCI-H226 lung): 59.7 µM
- GI50 (OVCAR-5 ovarian): 41 µM
- TGI (OVCAR-5 ovarian): > 100 µM
- GI50 (SF-295 CNS): 17.8 µM
- TGI (SF-295 CNS): 50.5 µM
- GI50 (SK-MEL-5 melanoma): 55.7 µM
- TGI (SK-MEL-5 melanoma): > 100 µM
- GI50 (CAKI-1 renal): 33 µM
- TGI (CAKI-1 renal): > 100 µM
- GI50 (MCF7 breast): 48.4 µM
- TGI (MCF7 breast): > 100 µM
- GI50 (A549 NSCLC): 42 µM
- TGI (A549 NSCLC): > 100 µM
- GI50 (SF-539 CNS): 24.7 µM
- TGI (SF-539 CNS): 41 µM
- GI50 (OVCAR-8 ovarian): 44.5 µM
- TGI (OVCAR-8 ovarian): > 100 µM
- GI50 (HCT-116 colon): 27.3 µM
- TGI (HCT-116 colon): 88.8 µM
- GI50 (HS 578T breast): 28.8 µM
- TGI (HS 578T breast): 92.7 µM
- GI50 (MALME-3M melanoma): 41.1 µM
- TGI (MALME-3M melanoma): > 100 µM
- GI50 (ACHN renal): 23.7 µM
- TGI (ACHN renal): 57.5 µM
- GI50 (UACC-62 melanoma): 18.6 µM
- TGI (UACC-62 melanoma): 48.4 µM
- GI50 (HCT-15 colon): 32.8 µM
- TGI (HCT-15 colon): > 100 µM
- GI50 (NCI/ADR-RES ovarian): 37.6 µM
- TGI (NCI/ADR-RES ovarian): > 100 µM
- GI50 (RXF 393 renal): 21.6 µM
- TGI (RXF 393 renal): 63 µM
- GI50 (786-0 renal): 22.2 µM
- TGI (786-0 renal): 42.7 µM
- GI50 (U251 CNS): 17.1 µM
- TGI (U251 CNS): 35.4 µM
- GI50 (UO-31 renal): 43 µM
- TGI (UO-31 renal): > 100 µM
- GI50 (OVCAR-4 ovarian): 27.7 µM
- TGI (OVCAR-4 ovarian): 73.9 µM
- GI50 (COLO 205 colon): 41.7 µM
- TGI (COLO 205 colon): > 100 µM
- GI50 (OVCAR-3 ovarian): 34.9 µM
- TGI (OVCAR-3 ovarian): > 100 µM
- GI50 (HOP-92 NSCLC): 21.1 µM
- TGI (HOP-92 NSCLC): 55.3 µM
- GI50 (K-562 leukemia): 32.2 µM
- TGI (K-562 leukemia): > 100 µM
- GI50 (RPMI-8226 leukemia): 23.5 µM
- TGI (RPMI-8226 leukemia): > 100 µM
- GI50 (DU-145 prostate): 32.5 µM
- TGI (DU-145 prostate): > 100 µM
- GI50 (HCC-2998 colon): 25.8 µM
- TGI (HCC-2998 colon): 70.1 µM
- GI50 (NCI-H460 lung): 35.4 µM
- TGI (NCI-H460 lung): > 100 µM
- GI50 (SNB-75 CNS): 22.1 µM
- TGI (SNB-75 CNS): 50 µM
- GI50 (SNB-19 CNS): 47 µM
- TGI (SNB-19 CNS): > 100 µM
- GI50 (TK-10 renal): 38.5 µM
- TGI (TK-10 renal): > 100 µM
- GI50 (SN12C renal): 22.4 µM
- TGI (SN12C renal): 58.8 µM
- GI50 (EKVX NSCLC): 21.1 µM
- TGI (EKVX NSCLC): 66 µM
- GI50 (SW-620 colon): > 100 µM
- TGI (SW-620 colon): > 100 µM
- GI50 (M14 melanoma): 39.9 µM
- TGI (M14 melanoma): > 100 µM
- GI50 (T-47D breast): 53.3 µM
- TGI (T-47D breast): > 100 µM
- GI50 (UACC-257 melanoma): 93.5 µM
- TGI (UACC-257 melanoma): > 100 µM
- GI50 (SK-MEL-2 melanoma): 26.7 µM
- TGI (SK-MEL-2 melanoma): 76.5 µM
- GI50 (MDA-MB-231 breast): 14.5 µM
- TGI (MDA-MB-231 breast): 40.1 µM
- GI50 (HOP-62 NSCLC): 20.1 µM
- TGI (HOP-62 NSCLC): 38.8 µM
- GI50 (PC-3 prostate): 31.4 µM
- TGI (PC-3 prostate): > 100 µM
- GI50 (BT-549 breast): 36.4 µM
- TGI (BT-549 breast): > 100 µM
- GI50 (KM12 colon): 32.6 µM
- TGI (KM12 colon): > 100 µM
- GI50 (MDA-MB-435): 55.8 µM
- TGI (MDA-MB-435): > 100 µM
- GI50 (LOX IMVI melanoma): 37.2 µM
- TGI (LOX IMVI melanoma): > 100 µM
- GI50 (SK-OV-3 ovarian): 35.6 µM
- TGI (SK-OV-3 ovarian): > 100 µM
- GI50 (SK-MEL-28 melanoma): 48.2 µM
- TGI (SK-MEL-28 melanoma): > 100 µM
- GI50 (IGROV1 ovarian): 58.9 µM
- TGI (IGROV1 ovarian): > 100 µM
- GI50 (A498 renal): 19 µM
- TGI (A498 renal): 47.1 µM
